Data from patent US8017828B2, “Utilization of rare sugars in plant or microorganism” (Shikoku Research Institute Incorporated, priority 2004, dated 2011).

Legend:
[1] = tested on: Fusarium oxysporum IFO 31213 strain; assay: Infection of treated tomato seeds on agar with Fusarium oxysporum; type: in vivo, tomato plant (variety: “House Momotaro”)
Protocol: (§1) Therefore, by using a tomato plant and a strain of Fusarium oxysporum, which is a typical pathogenic bacterium of tomato, an effect of D-psicose during infection was examined.
(§2) To be more specific, seeds of a tomato plant (variety: “House Momotaro”) were subjected to an immersion treatment by immersing them in a D-psicose solution at a concentration of from 0.01% (w/v) to 0.1% (w/v) for 15 minutes while stirring slowly, followed by air-drying on sterile gauze, and then used as treated seeds. At the center of a plastic dish with a diameter of 9 cm filled with 25 ml of 1% (w/v) agar, a mycelial disc (diameter: 1 cm) obtained by pushing out Fusarium oxysporum (IFO 9967 strain and IFO 31213 strain) cultured for 1 week on a potato dextrose agar medium using a cork borer along with the agar medium was placed, and 10 seeds of the above treated seeds were placed equally spaced around the disc. At this time, test plots in which D-psicose was added to the agar medium at a concentration of from 0.01% (w/v) to 0.1% (w/v) were prepared. Then, the dishes were placed at 23° C. under the dark condition for 7 days to 10 days, and observation was carried out with regard to the elongation of shoot, the elongation of root, the shoot development rate, the infection state in root and the like.

[2] = tested on: Fusarium oxysporum IFO 9967 strain; assay: as above; type: in vivo, tomato plant (variety: “House Momotaro”)
Protocol: as §1, §2

[3] = D-psicose seed 0.01%, medium 0.01%
[4] = D-psicose seed 0.01%, medium non
[5] = D-psicose seed 0.05%, medium 0.05%
[6] = D-psicose seed 0.05%, medium non
[7] = D-psicose seed 0.10%, medium 0.10%
[8] = D-psicose seed 0.10%, medium non
[9] = seeds treated, and seeds treated plus agar medium

## O=C(CO)[C@H](O)[C@H](O)[C@H](O)CO [D-psicose]
[1]; D-psicose added to the agar medium
  mycelial elongation of Fusarium oxysporum: inhibited
[1]; [3]
  Root length: 4.7 cm
  Shoot length: 4.5 cm
[1]; [4]
  Root length: 3.9 cm
  Shoot length: 4.7 cm
[1]; [5]
  Root length: 3.5 cm
  Shoot length: 4.5 cm
[1]; [6]
  Root length: 3.8 cm
  Shoot length: 4.2 cm
[1]; [7]
  Root length: 2.1 cm
  Shoot length: 2.9 cm
[1]; [8]
  Root length: 3.2 cm
  Shoot length: 3.0 cm
[1]; [9]
  browning caused by infection of roots with Fusarium oxysporum: reduction
  shoot development rate: improvement
[2]; [3]
  Root length: 4.5 cm
  Shoot length: 5.2 cm
[2]; [4]
  Root length: 4.1 cm
  Shoot length: 5.1 cm
[2]; [5]
  Root length: 3.7 cm
  Shoot length: 5.7 cm
[2]; [6]
  Root length: 3.3 cm
  Shoot length: 3.4 cm
[2]; [7]
  Root length: 2.0 cm
  Shoot length: 3.8 cm
[2]; [8]
  Root length: 3.7 cm
  Shoot length: 4.3 cm
[2]; [9]
  browning caused by infection of roots with Fusarium oxysporum: reduction
  shoot development rate: improvement
